Test [1] has as its system human PMNs and platelets. The experiment in a line: Platelet/PMN aggregation. Format: cell-based. The note with it: LPS-stimulated PMNs mixed with thrombin-stimulated platelets. As to the method: Using protocols modified from Saboor et al., […] Med Sci, 2013, 20: 62-66, human PMNs (2×10^6 cells/mL) were isolated and incubated with […] or SCR (0.1-10 ng/ml) for 1 hour prior to addition of freshly isolated human platelet at a ratio of 100:1 for another 15 minute incubation. After this period, the cells (PMNs and platelets) were stimulated with thrombin (0.1 IU/mL) or control M-199 media for 1 hour. The cells were stained for 20 minutes with the following primary monoclonal antibodies: PE-conjugated CD41 and FITC-conjugated CD16. Isotype and fluorochrome matched control antibodies were used. Flow cytometry was performed using BECTON-DICKINSON FACSCAN and CELLQUEST software.

Test [2] has as its system PMNs isolated from healthy adult donors. The test can be described thus: PMN chemotaxis, modified Boyden Chamber assay. Format: cell-based, human. To be noted: 1 nM, one hour pre-incubation; IL-8 2 ng/mL. How it is done: Chemotaxis by PMNs isolated from healthy adult donors was assessed using a modified Boyden Chamber assay±a one hour pre-incubation […] (1 nM), or SCR (1 nM). Recombinant human IL-8 (2 ng/mL) was used as the chemoattractant. Chemotaxis through a 5 micron filter was determined by counting PMNs in 10 randomly selected high-power fields as previously described in Hill et al., Lancet, 1974, 2: 617-619. In separate experiments, […], or SCR (all at 1 nM) were evaluated for chemoattractant activity using the same system.

Test [3] has the same test system. The experiment in a line: PMN phagocytosis of E. coli BIOPARTICLES
The class given is cell-based, human. The note with it: 1 nM, 60 minutes pre-incubation, 4 hours. As to the method:
PMNs were isolated from blood of healthy adult donors and resuspended in M-199 at a concentration of 2×10^6 cells/mL. Leukocytes were pre-incubated for 60 minutes under standard conditions with cytochalasin B and […] (1 nM), or SCR (1 nM). Following pre-incubation, PMNs were incubated with 6×10^6 E. coli BIOPARTICLES (E-13231, MOLECULAR PROBES) on a rotator for 4 hours under standard conditions. The PMNs were then washed and resuspended in the starting volume in M-199 before being spun down onto glass coverslips and fixed with 2% paraformaldehyde for 10 minutes and permeabilized with 0.1% Triton-X-100 for 10 minutes. Leukocytes were stained with WGA 555 (INVITROGEN) and TO[…] (MOLECULAR PROBES) and randomly selected high power visual field images were captured using confocal microscopy. IMAGE-J software (NIH) was used to determine the percentage of PMNs that were positive for fluorescently labeled E. coli BIOPARTICLES detected at 488 nm.

The test system of test [4] is PMA-stimulated adult PMNs. The experiment in a line: NET formation by PMA-stimulated adult human PMNs. The note with it: pre-incubation 1 nM, 1 hour; PMA 20 nM. The class given is cell-based.
Protocol: NET formation by PMA-stimulated adult PMNs with or without CRISPP pre-incubation was assessed.
Human PMNs isolated from healthy adult donors were stimulated with LPS (100 ng/mL) or phorbal-12-mystirate (PMA; 20 nM), ±nNIF (1 nM) or CRISPP (1 nM), pre-incubation (1 hour). Scrambled control peptide (SCR) generated using the identical amino acid content as CRISPP but linked in a random order was used as a control. NET formation was assessed 2 hours after stimulation.
Briefly, primary PMNs isolated from preterm infants, healthy term infants, and healthy adults (2×10^6 cells/mL) were incubated with control buffer or stimulated with LPS (100 ng/mL), PMA (20 nM), or S. aureus bacteria (MOI 100) for 1 hour at 37° C. in 5% CO2/95% air on glass coverslips coated with poly-L-lysine. For selected experiments, primary PMNs were pre-incubated with autologous plasma, cord blood plasma, nNIF (1 nM), CRISPP (1 nM), or SCR (1 nM) for 1 hour prior to imaging. After pre-incubation and/or stimulation, PMNs were gently washed with PBS and incubated with a mixture of cell permeable (SYTO Green, MOLECULAR PROBES) and impermeable (SYTOX Orange, MOLECULAR PROBES) DNA fluorescent dyes. Confocal microscopy was accomplished using a FV300 1×81 Microscope and FLUOVIEW software (OLYMPUS). Both 20× and 60× objectives were used. Z-series images were obtained at a step size 1 μm over a range of 20 μm for each field. OLYMPUS FLUOVIEW and ADOBE PHOTOSHOP CS2 software were used for image processing.
Supernatant total histone H3 content was determined as previously referenced in McInturff et al., Blood, 2012, 120: 3118-3125. After live cell imaging of control and stimulated primary PMNs (2×10^6/mL; various agonists), the cells were incubated with PBS containing DNase (40 U/mL) for 15 minutes at room temperature to break down and release NETs formed in response to stimulation. The supernatant was gently removed and centrifuged at 420×g for 5 minutes. The cell-free supernatant was then mixed 1:3 with 4× Laemmli buffer prior to western blotting. A polyclonal primary antibody against human histone H3 protein (CELL SIGNALING TECHNOLOGY) and infrared secondary antibodies (LI-COR BIOSCIENCES) were used. Imaging and densitometry were performed on the ODYSSEY™ infrared imaging system (LI-COR BIOSCIENCES).
Test [5] has as its system human PMNs (killing of a pathogenic strain of E. coli). The test can be described thus: Bacterial killing of E. coli by human PMNs. The class given is cell-based. The note with it: LPS-stimulated (100 ng/mL) PMNs; pretreatment 1 nM. How it is done: Total, phagocytotic, and NET-mediated extracellular bacterial killing of a pathogenic strain of E. coli by human PMNs±LPS stimulation (100 ng/mL) was assessed, and the results are summarized in FIG. 9. PMNs were also pretreated with CRISPP (1 nM), or a scrambled control peptide control (1 nM). Phagocytotic killing was inhibited with cytochalasin B and D pretreatment (10 μM). NET-mediated killing was inhibited using DNase treatment to dismantle NETs prior to addition of the bacteria.
Bacterial killing efficiency of primary human PMNs was determined as previously described in Yost et al., Blood, 2009, 113: 6419-6427. PMNs were incubated for 30 minutes at 37° C. in 5% CO2/95% air alone or with the phagocytosis inhibitors cytochalasin B and D (10 μM). The leukocytes were then stimulated with LPS (100 ng/mL), placed in poly-L-lysine-coated wells of a 24-well tissue culture plate, and incubated at 37° C. for 1 hour to induce cellular activation and formation of NETs. To inhibit NET-mediated bacterial killing, we incubated selected wells with DNase (40 U/mL) for 15 minutes prior to addition of bacteria. E. coli (1 cfu/100 PMN) were added to the PMNs, followed by continued incubation for 2 hours. The PMNs were then permeabilized with 0.1% Triton-X 100 for 10 minutes and each well was scraped to free all cells. Serial dilutions were performed and bacterial cultures were grown on 5% sheep blood agar plates (HARDY DIAGNOSTICS). After a 24-hour incubation, bacterial counts were determined. Total, phagocytotic, and fractional NET-mediated bacterial killing were determined as described above.

For test [6], the system named is PMA-stimulated PMNs. The experiment in a line: Nuclear decondensation (nuclear area) assay. The class given is cell-based, human. The note with it: CRISPP 1 nM, SCR 1 nM, Sivelestat 200 nM; PMA 20 nM, 2 hours; vs PMA alone. How it is done:
Using techniques modified from Papayannopoulos et al., J Cell Biol, 2010, 191: 677-691, nuclear area assays were used for PMA-stimulated PMNs as a surrogate for NET formation. PMNs were stimulated with PMA (20 nM) for 2 hours and then visualized via live cell imaging with a cell permeable DNA dye. Images from 5 randomly selected high power fields were captured and the nuclear area of all PMNs on each visual field was quantitated using IMAGEJ software. Nuclear areas were compared for PMNs stimulated with PMA with PMNs pre-incubated with CRISPP (1 nM), SCR (1 nM), or the NE inhibitor Sivelestat (200 nM). […] Next, immunocytochemical experiments designed to see whether CRISPP is taken up by human PMNs were performed. The CRISPP-F and SCR-F peptides and FLAG-tag specific primary antibodies were used to assess cellular location. […] CRISPP can inhibit nuclear chromatin decondensation, which is consistent with the selective inhibition of NET formation by CRISPP and nNIF. This process may involve inhibition of NE activity.
PMNs were isolated and resuspended to 2×10^6 cells/mL in M-199 media. […] 5 randomly selected high power visual fields per sample were captured via confocal microscopy and analyzed for nuclear area using the cell-permeable, fluorescent DNA dye SYTO Green. The nuclear pixel areas of >100 individual cells per high power field were determined using IMAGE-J software (NIH).

Entries after “also recorded” stand apart in the source; their conditions may differ.

Turning to “Cancer-Associated SCM-Recognition, Immune Defense Suppression, and Serine Protease Protection Peptide [CRISPP, nNIF-related peptide (nNRP)]”, in test [1], the “Platelet/PMN association (flow cytometry)” value is listed as “did not alter”. In addition, the PMN chemotaxis entry in test [2] is “did not significantly inhibit”. Also, in test [3], the PMN phagocytosis result is reported as “did not significantly inhibit”. Moreover, the “NET formation by PMA-stimulated PMNs” value in test [4] is “significantly inhibited NET formation”. In test [5], the “NET-mediated extracellular bacterial killing of E. coli” value is given as “significantly decreased”, the “Phagocytotic bacterial killing of E. coli” value is given as “did not alter; also recorded: not different” and the “Total bacterial killing of E. coli” value was “significantly decreased”. Also, in test [6], the “Nuclear area of PMA-stimulated PMNs” value is reported as “significant decrease in nuclear area”.

These data come from patent US10232023B2, “Methods for treatment of and prophylaxis against inflammatory disorders” (THE UNIVERSITY OF UTAH RESEARCH FOUNDATION, priority 2013, dated 2019).
